For series [1], the system named is Nilaparvata lugens (brown plant hopper, BPH). Briefly: Activity against Nilaparvata lugens (brown plant hopper, BPH) on sprayed rice plants, % mortality (Abbott). It is filed as in vivo. Conditions: 168 h. On the procedure: Eight replicates (pots with rice plants) were sprayed with respective test solutions. Test solutions contained the formulated test compound and the PGR Moddus® at different ratios. 4 pots were infested with plant hopper nymphs right after application. 7d after application BPH mortality and phytotoxicity were evaluated.

The test system of series [2] is Rhopalosiphum padi (cereal aphid). As to the kind of experiment: Activity against Rhopalosiphum padi (cereal aphid) on sprayed wheat plants, % mortality (Abbott). An excerpt: Activity Against Rhopalosiphum padi (Cereal Aphid) and Crop Safety
The experiment was divided into two parts, one half of the plants was used for the aphid bioassay the other half was not infested with aphids and kept for plant growth evaluation. One replicate consisted of 4 wheat plants per pot. 5 replicates were infested with a mixed population of cereal aphids 6 days after seeding. 9 days after seeding all wheat plants (10 replicates) were sprayed with respective test solutions. Test solutions contained the formulated test compound (25 ppm), the adjuvant Mero (0.1% v/v), and the plant growth regulator (PGR) CCC (chlormequat-chloride, Cyclocel®) or trinexapac ethyl (Moddus®). 6 and 17d after application aphid mortality and phytotoxicity were evaluated. Efficacy was calculated with the aid of Abbott's formula. Assessment on phytotoxicity was done by counting the number of leaves bent down due to necrosis per pot. Additionally the average plant height per replicate was measured.

Where two headings read alike, the source gives them in different places.

By melting point is commonly meant the temperature, or range, at which the solid turns liquid. `COCON1C(=O)C(c2c(C)cc(Cl)cc2C)=C(O)C12CCN(OC)CC2` displayed a melting point of 176 to 178 °C.

`CON1CCC2(CC1)C(O)=C(c1cc(Br)c(C)cc1C)C(=O)N2OC` yielded a melting point of 86 to 87 °C.

Compound `CCN1C(=O)C(c2c(C)cc(C)cc2C)=C(O)C12CCN(OC)CC2` yielded a melting point of 218 to 221 °C.

Compound `CON1CCC2(CC1)C(O)=C(c1cc(C)c(C)cc1Cl)C(=O)N2C` registered a melting point of 191 to 192 °C.

`CCOC(=O)OC1=C(c2c(C)cc(C)cc2C)C(=O)N(CC)C12CCN(OC)CC2` came in with a melting point of 101 to 103 °C.

`CON1CCC2(CC1)C(O)=C(c1c(C)cc(C)cc1C)C(=O)N2OCCOC1CCCCO1` (centres unmarked) yielded a melting point of 135 to 137 °C.

Take `COCON1C(=O)C(c2cc(C)ccc2C)=C(OC)C12CCN(OC)CC2`: the melting point was 91 to 93 °C.

`CON1CCC2(CC1)C(O)=C(c1cc(C)ccc1C)C(=O)N2C` yielded a melting point of 121 to 123 °C.

As for `CCOC(=O)OC1=C(c2cc(C)ccc2C)C(=O)N(C)C12CCN(OC)CC2`, the melting point fell in the range of 96 to 110 °C.

With `CON1CCC2(CC1)C(O)=C(c1c(C)cc(Cl)cc1C)C(=O)N2OC1CCCO1` (centres unmarked), the melting point was 137 to 139 °C.

As to `CON1CCC2(CC1)C(O)=C(c1c(C)cc(C)cc1C)C(=O)N2OCC1CCCCC1`, the melting point fell in the range of 169 to 172 °C.

Take `CON1CCC2(CC1)C(O)=C(c1cc(C)c(C)cc1C)C(=O)N2C`: the melting point fell in the range of 183 to 186 °C.

Take `CCOC(=O)OC1=C(c2c(C)cc(Cl)cc2C)C(=O)N(OC)C12CCN(OC)CC2`: the melting point lay within 122 to 125 °C.

In turn, `CCOC(=O)OC1=C(c2cc(C)c(C)cc2Cl)C(=O)N(C)C12CCN(OC)CC2` registered a melting point of 149 to 150 °C.

The compound `COCON1C(=O)C(c2c(F)ccc(C)c2Cl)=C(O)C12CCN(OC)CC2` returned a melting point of 155 to 158 °C.

Compound `CON1CCC2(CC1)C(O)=C(c1c(C)cc(C)cc1C)C(=O)N2CC1CC1` gave a melting point of 223 to 225 °C.

As to `CCOC(=O)OC1=C(c2c(C)cc(C)cc2C)C(=O)N(C)C12CCN(OC)CC2` [P1.2, Carbonic acid ethyl ester 8-methoxy-1-methyl-2-oxo-3-(2,4,6-trimethyl-phenyl)-1,8-diaza-spiro[4.5]dec-3-en-4-yl ester], the mortality at 12.5 ppm in series [1] (12.5 ppm AI with Moddus, ratio AI:PGR 0.9:1, 7 d after application, read-out: Efficacy (% mortality) against brown plant hopper (Nilaparvata lugens)) came to 5%; in series [1] (12.5 ppm AI, no PGR, 7 d after application, read-out: Efficacy (% mortality) against brown plant hopper (Nilaparvata lugens)), 65%. Moreover, the mortality at 25 ppm came to 10% in series [1] (25 ppm AI with Moddus, ratio AI:PGR 1.9:1, 7 d after application, read-out: Efficacy (% mortality) against brown plant hopper (Nilaparvata lugens)) and 37% in series [1] (25 ppm AI, no PGR, 7 d after application, read-out: Efficacy (% mortality) against brown plant hopper (Nilaparvata lugens)). Moreover, the mortality at 50 ppm in series [1] (50 ppm AI with Moddus, ratio AI:PGR 1.25:1, 7 d after application, read-out: Efficacy (% mortality) against brown plant hopper (Nilaparvata lugens)) came out at 33%; in series [1] (50 ppm AI, no PGR, 7 d after application, read-out: Efficacy (% mortality) against brown plant hopper (Nilaparvata lugens)), 62%. The mortality at 100 ppm in series [1] (100 ppm AI with Moddus, ratio AI:PGR 7.5:1, 7 d after application, read-out: Efficacy (% mortality) against brown plant hopper (Nilaparvata lugens)) was 77%; in series [1] (100 ppm AI, no PGR, 7 d after application, read-out: Efficacy (% mortality) against brown plant hopper (Nilaparvata lugens)), 80%. For the same compound, the mortality at 200 ppm in series [1] (200 ppm AI with Moddus, ratio AI:PGR 15:1, 7 d after application, read-out: Efficacy (% mortality) against brown plant hopper (Nilaparvata lugens)) was 87%; in series [1] (200 ppm AI, no PGR, 7 d after application, Abbott, read-out: Efficacy (% mortality) against brown plant hopper (Nilaparvata lugens)), 90%. The “Efficacy (% mortality) against cereal aphids (Rhopalosiphum padi), 6 DAA” value turned out to be 97% in series [2] (test compound 25 ppm + Mero 0.1% v/v, tank mix with PGR Cycocel, ratio AI:PGR 1:20, 6 DAA); 94% in series [2] (test compound 25 ppm + Mero 0.1% v/v, tank mix with PGR Moddus, ratio AI:PGR 1:10, 6 DAA); 97% in series [2] (test compound 25 ppm + adjuvant Mero 0.1% v/v, no PGR, 6 days after application, Abbott). The “Efficacy (% mortality) against cereal aphids (Rhopalosiphum padi), 17 DAA” value in series [2] (test compound 25 ppm + Mero 0.1% v/v, tank mix with PGR Cycocel, ratio AI:PGR 1:20, 17 DAA) amounted to 93%; in series [2] (test compound 25 ppm + Mero 0.1% v/v, tank mix with PGR Moddus, ratio AI:PGR 1:10, 17 DAA) it was 90%; in series [2] (test compound 25 ppm + adjuvant Mero 0.1% v/v, no PGR, 17 days after application, Abbott) it was 70%.

Compound `CON1CCC2(CC1)C(O)=C(c1cc(Br)c(C)cc1C)C(=O)N2C` came in with a melting point of 182 to 183 °C.

`CON1CCC2(CC1)C(O)=C(c1cc(C)c(C)cc1Br)C(=O)N2C` displayed a melting point of 191 to 193 °C.

In turn, `CCOC(=O)OC1=C(c2c(F)ccc(C)c2Cl)C(=O)N(OCOC)C12CCN(OC)CC2` yielded a melting point of 116 to 119 °C.

`COCCON1C(=O)C(c2cc(Br)c(F)cc2C)=C(O)C12CCN(OC)CC2` displayed a melting point of 71 to 74 °C.

For the compound `CCOC(=O)OC1=C(c2c(C)cc(Cl)cc2C)C(=O)N(C)C12CCN(OC)CC2` [P1.29], the mortality at 12.5 ppm in series [1] (read-out: Efficacy (% mortality) against brown plant hopper (Nilaparvata lugens), 12.5 ppm AI with Moddus, ratio AI:PGR 0.9:1, 7 d after application) was 80%; in series [1] (read-out: Efficacy (% mortality) against brown plant hopper (Nilaparvata lugens), 12.5 ppm AI, no PGR, 7 d after application) it was 98%. The mortality at 25 ppm in series [1] (read-out: Efficacy (% mortality) against brown plant hopper (Nilaparvata lugens), 25 ppm AI with Moddus, ratio AI:PGR 1.9:1, 7 d after application) was determined as 97%; in series [1] (read-out: Efficacy (% mortality) against brown plant hopper (Nilaparvata lugens), 25 ppm AI, no PGR, 7 d after application), 98%. Moreover, the mortality at 50 ppm in series [1] (read-out: Efficacy (% mortality) against brown plant hopper (Nilaparvata lugens), 50 ppm AI with Moddus, ratio AI:PGR 1.25:1, 7 d after application) came out at 98%; in series [1] (read-out: Efficacy (% mortality) against brown plant hopper (Nilaparvata lugens), 50 ppm AI, no PGR, 7 d after application), 100%. Besides, the mortality at 100 ppm in series [1] (read-out: Efficacy (% mortality) against brown plant hopper (Nilaparvata lugens), 100 ppm AI with Moddus, ratio AI:PGR 7.5:1, 7 d after application) came to 100%; in series [1] (read-out: Efficacy (% mortality) against brown plant hopper (Nilaparvata lugens), 100 ppm AI, no PGR, 7 d after application) it was 100%. Also, the mortality at 200 ppm in series [1] (read-out: Efficacy (% mortality) against brown plant hopper (Nilaparvata lugens), 200 ppm AI with Moddus, ratio AI:PGR 15:1, 7 d after application) turned out to be 100%; in series [1] (read-out: Efficacy (% mortality) against brown plant hopper (Nilaparvata lugens), 200 ppm AI, no PGR, 7 d after application, Abbott) it was 100%.

`COCON1C(=O)C(c2cc(C)ccc2C)=C(OC(=O)CC(C)(C)C)C12CCN(OC)CC2` registered a melting point of 93 to 95 °C.

For the compound `COCCON1C(=O)C(c2cc(Br)c(C)cc2C)=C(O)C12CCN(OC)CC2`, the melting point fell in the range of 63 to 64 °C.

In turn, `COCCON1C(=O)C(c2c(C)cc(Cl)cc2C)=C(O)C12CCN(OC)CC2` displayed a melting point of 161 to 164 °C.

Compound `CCOC(=O)OC1=C(c2cc(C)c(C)cc2Br)C(=O)N(C)C12CCN(OC)CC2` registered a melting point of 158 to 159 °C.

Take `COCON1C(=O)C(c2c(C)cc(-c3ccc(Cl)cc3)cc2C)=C(O)C12CCN(OC)CC2`: the melting point is 128 °C (dec.).

The compound `CON1CCC2(CC1)C(O)=C(c1c(C)cc(Cl)cc1C)C(=O)N2OC` returned a melting point of 88 to 92 °C.

`COCON1C(=O)C(c2cc(Br)c(F)cc2C)=C(O)C12CCN(OC)CC2` showed a melting point of 64 to 67 °C.

(Values after patent US9018135B2, “Pesticidal compositions” (Syngenta Participations AG, priority 2010, dated 2015).)
